Laboratory results as given in US20260001849A1, “NOVEL B0AT1 INHIBITOR” (MITSUBISHI TANABE PHARMA CORPORATION, priority 2023, published 2026).
Where two headings read alike, the source gives them in different places.

Assays:
[1] = molecular target: T1, hERG channel (Homo sapiens, UniProt Q12809); assay: hERG channel inhibitory activity, whole-cell patch clamp (auto-patch clamp system); type: cell-based; details: read-out: hERG IC50
T1 construct: host or cells: CHO cells
Protocol: Evaluation of hERG (Human Ether-a-go-go Related Gene) Channel Inhibitory Activity
The hERG channel inhibitory activity of the compound of the present invention was measured using CHO cells (B′ SYS GmbH) forcibly expressing hERG channels involved in human rapidly active delayed rectifier potassium current (IKr) by the whole-cell patch clamp method using an auto-patch clamp system (SyncroPatch384PE).
Cell suspension, extracellular fluid, intracellular fluid, and measurement plate (NPC-384 plate) were placed in the auto-patch clamp system, and hERG current measurements were performed using the whole-cell patch clamp method. The voltage protocol was set to a holding potential of −80 mV, with a depolarizing pulse preceded by −90 mV (100 ms) and followed by −80 mV (100 ms).
The depolarizing pulse was […] (500 ms), and then the hERG peak current value obtained during the ramp phase was measured when the voltage was lowered to −80 mV over 100 ms. The protocol was applied at 5-second intervals for 5 minutes for each concentration.
SyncroPatch software (manufactured by Nanion) was used for data analysis. Four concentrations were applied incrementally for each test substance, and the average hERG Peak current value obtained from the last three stimuli of each applied concentration was used as the evaluation data. The IC50 value was calculated from the inhibition rate of the current at each concentration of each test substance relative to the pre-application value using Hill's equation (Hill equation) using the relevant software.
The same experiments were also performed using the example compounds described in WO 2023/145804 as comparative example compounds 1-4.

[2] = molecular target: T2, Human BOAT1 (Homo sapiens, UniProt Q695T7); assay: hBOAT1 inhibitory test (phenylalanine uptake); type: cell-based; details: Human BOAT1 stable expression CHO cells, phenylalanine 0.25 mM, read-out: hB0AT1 IC50
T2 construct: expressed in transfected cells
T2 sequence (Q695T7 1-634): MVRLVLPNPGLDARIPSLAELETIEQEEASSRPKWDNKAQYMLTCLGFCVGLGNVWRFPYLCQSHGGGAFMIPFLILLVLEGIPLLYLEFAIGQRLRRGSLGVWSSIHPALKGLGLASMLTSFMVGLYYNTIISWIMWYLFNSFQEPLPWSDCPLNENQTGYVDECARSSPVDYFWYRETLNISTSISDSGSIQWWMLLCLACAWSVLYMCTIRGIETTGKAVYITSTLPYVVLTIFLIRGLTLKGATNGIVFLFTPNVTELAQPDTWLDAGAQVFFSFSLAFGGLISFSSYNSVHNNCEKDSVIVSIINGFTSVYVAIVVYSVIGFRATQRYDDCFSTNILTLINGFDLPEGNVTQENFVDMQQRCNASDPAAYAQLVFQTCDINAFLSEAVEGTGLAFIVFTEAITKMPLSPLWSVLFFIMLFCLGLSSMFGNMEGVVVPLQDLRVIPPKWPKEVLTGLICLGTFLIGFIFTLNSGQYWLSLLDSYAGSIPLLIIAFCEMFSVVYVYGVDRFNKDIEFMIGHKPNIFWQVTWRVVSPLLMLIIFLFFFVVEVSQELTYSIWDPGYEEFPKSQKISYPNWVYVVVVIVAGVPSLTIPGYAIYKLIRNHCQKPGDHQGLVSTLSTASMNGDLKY
How it was run: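 Human BOAT1 stably expressed in CHO cells (75000 cells/well) in HEPES-buffered NaCl/KCl/CaCl2/MgCl2 buffer with 0.01% BSA, compound at 0.5% DMSO, preincubated ≥30 min at ordinary temperature. Uptake of L-phenylalanine plus [3H]-L-phenylalanine (0.25 mM final) read by scintillation proximity; 100–200 min values analysed, non-specific uptake defined with […] reference inhibitor.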

[3] = [3H]-L-phenylalanine uptake, radioactivity after 100 to 200 min

T1 sequence (Q12809 whole entry): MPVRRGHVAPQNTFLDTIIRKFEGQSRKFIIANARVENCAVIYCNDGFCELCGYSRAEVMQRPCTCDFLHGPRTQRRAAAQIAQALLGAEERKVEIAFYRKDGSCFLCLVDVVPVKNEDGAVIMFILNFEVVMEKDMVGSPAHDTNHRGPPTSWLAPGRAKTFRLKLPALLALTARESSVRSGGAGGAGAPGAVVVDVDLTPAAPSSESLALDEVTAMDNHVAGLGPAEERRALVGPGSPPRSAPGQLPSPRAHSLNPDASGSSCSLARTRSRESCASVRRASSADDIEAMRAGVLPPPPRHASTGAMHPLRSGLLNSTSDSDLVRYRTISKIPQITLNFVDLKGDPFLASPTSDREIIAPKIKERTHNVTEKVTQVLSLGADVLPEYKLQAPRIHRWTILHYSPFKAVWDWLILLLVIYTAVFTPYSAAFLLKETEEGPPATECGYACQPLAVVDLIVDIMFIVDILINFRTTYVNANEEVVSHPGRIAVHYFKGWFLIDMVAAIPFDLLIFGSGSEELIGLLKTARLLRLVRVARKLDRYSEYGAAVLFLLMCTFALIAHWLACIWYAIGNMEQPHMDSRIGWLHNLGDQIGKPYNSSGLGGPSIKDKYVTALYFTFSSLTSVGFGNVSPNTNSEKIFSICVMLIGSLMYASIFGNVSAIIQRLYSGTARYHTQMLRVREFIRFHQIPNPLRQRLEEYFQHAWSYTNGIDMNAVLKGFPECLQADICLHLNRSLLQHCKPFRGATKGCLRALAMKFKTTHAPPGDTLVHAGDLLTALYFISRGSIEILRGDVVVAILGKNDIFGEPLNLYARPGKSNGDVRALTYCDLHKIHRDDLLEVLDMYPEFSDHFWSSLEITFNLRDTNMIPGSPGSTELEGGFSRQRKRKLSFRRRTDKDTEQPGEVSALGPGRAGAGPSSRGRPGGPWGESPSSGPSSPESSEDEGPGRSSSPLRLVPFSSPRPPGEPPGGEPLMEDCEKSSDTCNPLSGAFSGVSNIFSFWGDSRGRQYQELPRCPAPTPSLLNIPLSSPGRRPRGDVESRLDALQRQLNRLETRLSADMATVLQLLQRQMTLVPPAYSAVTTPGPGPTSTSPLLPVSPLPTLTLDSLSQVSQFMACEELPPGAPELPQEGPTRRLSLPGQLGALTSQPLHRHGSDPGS

Compound	IC50 ([2]; phenylalanine uptake) [nM]	IC50 [2, 3] [nM]	IC50 [1] [nM]
C[C@@H]1CN(C(=O)CNC(=O)/C=C/c2ccc(C(F)(F)F)cc2F)[C@@H](c2ccc(F)c(F)c2)CN1CCC(=O)O [I-348]	45		> 30000
C[C@@H]1CN(C(=O)CNC(=O)/C=C/c2ccc(C(F)(F)F)cc2)[C@@H](c2ccc(F)c(F)c2)CN1CCCC(=O)O [I-350]	184		> 30000
Cc1ccc([C@H]2CN(CCCC(=O)O)[C@H](C)CN2C(=O)CNC(=O)/C=C/c2ccc(C(F)(F)F)cc2F)cc1 [I-383]		64	15200
C[C@@H]1CN(C(=O)CNC(=O)/C=C/c2ccc(C(F)(F)F)cc2F)[C@@H](c2cccnc2)CN1CCCC(=O)O [I-395]	636		> 30000
C[C@@H]1CN(C(=O)CNC(=O)/C=C/c2ccc(C(F)(F)F)cc2F)[C@@H](c2ccc(Cl)s2)CN1CCC(=O)O [I-396]	71		> 30000
[2H]C([2H])([2H])[C@@H]1CN(C(=O)CNC(=O)/C=C/c2ccc(C(F)(F)F)cc2F)[C@@H](c2ccccc2)CN1CCCC(=O)O [I-397]	75		> 30000
C[C@@H]1CN(C(=O)CNC(=O)/C=C/c2ccc(C(F)(F)F)cc2F)[C@@H](c2ccc3ccccc3c2)CN1CCCC(=O)O [I-398]	42		25600
Cc1noc([C@H]2CN(CCCC(=O)O)CCN2C(=O)CNC(=O)/C=C/c2ccc(C(F)(F)F)cc2F)n1 [I-401]	2900		> 30000

Second part, led by results:

IC50 ([2]; phenylalanine uptake) [nM]	IC50 [2, 3] [nM]	Compound	IC50 [1] [nM]
93		C[C@@H]1CN(C(=O)CNC(=O)/C=C/c2ccc(C(F)(F)F)cc2F)[C@@H](c2ccc(F)c(F)c2)CN1CCCC(=O)O [I-349]	> 30000
400		C[C@@H]1[C@H](c2ccccc2)N(C(=O)CNC(=O)/C=C/c2ccc(C(F)(F)F)cc2F)CCN1CCCC(=O)O [I-353]	> 30000
	31	C[C@@H]1CN(C(=O)CNC(=O)/C=C/c2ccc(C(F)(F)F)cc2F)[C@@H](c2cccc(C3CC3)c2)CN1CCC(=O)O [I-384]	15800
	70	Cc1cccc([C@H]2CN(CCCC(=O)O)[C@H](C)CN2C(=O)CNC(=O)/C=C/c2ccc(C(F)(F)F)cc2F)c1 [I-385]	21000
